LogP data for 63 compounds are collected here from US12509437B2, “Substituted thiophene carboxamides and derivatives thereof as microbicides” (Bayer Aktiengesellschaft, priority 2019, dated 2025).

This data set in a line: LogP by HPLC on reversed phase columns (EEC directive 79/831 Annex V.A8). In kind it is physicochemical. How it is done:
[table] If more than one Log P value is available within the same method, all the values are given and separated by “+”. Calibration was done with straight-chain alkan2-ones (with 3 to 16 carbon atoms) with known Log P values (measurement of Log P values using retention times with linear interpolation between successive alkanones). Lambda-max-values were determined using UV-spectra from 200 nm to 400 nm and the peak values of the chromatographic signals.

The mark [1] stands for this setting: method [a]: LC-UV, acidic range, 0.1% formic acid in water and acetonitrile as eluent.

SMILES strings stand for the structures.

As to `Cc1c(C(=S)NCC(=O)O)sc(Cl)c1Cl` [I.172], the LogP (method [a]) is 2.71^[a].
On the same count and under the same terms, the same measure for `CCOC(=O)[C@H](CO)NC(=O)c1sc(Cl)c(Cl)c1C` [I.148]: 2.53^[a].
Still for that read-out and setting: the same measure for `CCOC(=O)C(CC1CC1)NC(=O)c1sc(Br)c(Br)c1C` (stereo not drawn) [I.092]: 4.30^[a].
Still for that read-out and setting: the same measure for `Cc1c(C(=O)NCC(N)=O)sc(Cl)c1Cl` [I.062]: 1.75^[a]; for `CCSC(=O)C(NC(=O)c1sc(Cl)c(Cl)c1C)C(C)C` (stereo not drawn) [I.042]: 4.69^[a]; for `COC(=O)[C@@H](CC(N)=O)NC(=O)c1sc(Cl)c(Cl)c1C` [I.054]: 2.05^[a].
For `COC(=O)CC1(NC(=O)c2sc(Br)c(Br)c2C)CC1` [I.012], where the note is “method [a]”, the LogP was 3.07^[a].
On the same count and under the same terms, as for `CCOC(=O)CC(NC(=O)c1sc(Cl)c(Cl)c1C)C(=O)OCC` (stereo not drawn) [I.123], the figure is 3.76^[a]; as for `CCOC(=O)C1(CNC(=O)c2sc(Br)c(Br)c2C)CC1` [I.013], 3.79^[a]; as for `CNC(=O)C1(NC(=O)c2sc(Cl)c(Cl)c2C)CC1` [I.160], 2.12^[a].
Regarding `Cc1c(C(=O)NC2CCOC2=O)sc(Cl)c1Cl` (stereo not drawn) [I.147], under setting [1], the LogP was 2.40^[a].
For the compound `CCOC(=O)C(C(C)C)N(C)C(=O)c1sc(Cl)c(Cl)c1C` (stereo not drawn) [I.059], the LogP (method [a]) was 4.44^[a].
The same measure, in the same setting: as for `Cc1c(C(=O)NC2(C(=O)OCC3CC3)CCC2)sc(Cl)c1Cl` [I.155], the figure is 4.19^[a]; as for `COC(=O)C(NC(=O)c1sc(Br)c(Br)c1C)C(=O)OC` [I.091], 3.10^[a].
On the same count and under the same terms, the same measure for `COC(=O)C1(NC(=S)c2sc(Cl)c(Cl)c2C)CC1` [I.050]: 3.68^[a]; for `CCSC(=O)C(CC(C)C)NC(=O)c1sc(Cl)c(Cl)c1C` (stereo not drawn) [I.041]: 5.00^[a]; for `Cc1c(C(=O)NC2(C(N)=O)CC2)sc(Br)c1Br` [I.129]: 2.07^[a].
Still for that read-out and setting: the same measure for `COC(=O)C(CCSC(C)=O)NC(=O)c1sc(Cl)c(Cl)c1C` (stereo not drawn) [I.117]: 3.59^[a].
Turning to `COC(=O)C1(NC(=O)c2sc(Br)c(Br)c2C)CCOC1` (stereo not drawn) [I.004], for the setting “method [a]”, the LogP was 2.84^[a].
Same read-out and setting: as for `CCOC(=O)C(NC(=O)c1sc(Br)c(Br)c1C)C1CC1` (stereo not drawn) [I.089], the figure is 3.84^[a].
For the compound `COC(=O)C(CCC(N)=O)NC(=O)c1sc(Br)c(Br)c1C` (stereo not drawn) [I.138], the LogP (method [a]) was 2.13^[a].
Still for that read-out and setting: as for `CCOC(=O)C1(NC(=O)c2sc(Cl)c(Cl)c2C)CSC1` [I.146], the figure is 3.60^[a]; as for `Cc1c(C(=O)NC2(C(=O)OC(C)(C)C)CC(F)(F)C2)sc(Cl)c1Cl` [I.145], 4.48^[a].
Still for that read-out and setting: as for `CNC(=S)SC[C@H](NC(=O)c1sc(Cl)c(Cl)c1C)C(=O)OC` [I.121], the figure is 3.33^[a]; as for `Cc1c(C(=O)NC2(C(=O)OC(C)(C)C)CCC2)sc(Cl)c1Cl` [I.156], 4.55^[a].
Same read-out and setting: as for `Cc1c(C(=O)NC2(C(=O)NC3CCC3)CC2)sc(Br)c1Br` [I.135], the figure is 2.94^[a].
With `Cc1c(C(=O)NC2(C#N)CCC(c3ccccc3)CC2)sc(Br)c1Br` (stereo not drawn) [I.170], the LogP under setting [1] is 4.78^[a].
As for `CCOC(=O)C(CC(F)(F)F)NC(=O)c1sc(Br)c(Br)c1C` (stereo not drawn) [I.018], the LogP (method [a]) was 3.99^[a].
In the case of `Cc1c(C(=O)N[C@H]2CCSC2=O)sc(Cl)c1Cl` [I.111], the LogP (method [b]: LC-UV, neutral range, 0.001 molar ammonium acetate solution in water and acetonitrile as eluent) is 2.97^[b].
As for `Cc1c(C(=O)NC2CCSC2=O)sc(Br)c1Br` (stereo not drawn) [I.002], the LogP under setting [1] is 3.04^[a].
Regarding `COC(=O)C(C1CC1)N(O)C(=O)c1sc(Cl)c(Cl)c1C` (stereo not drawn) [I.114], the LogP (method [a]) was 3.13^[a].
Turning to `CCOC(=O)C1(NC(=O)c2sc(Cl)c(Cl)c2C)CN(C(=O)OC(C)(C)C)C1` [I.088], the LogP (method [a]) was 4.15^[a].
On the same count and under the same terms, as for `Cc1c(C(=O)NCC(=O)Sc2ccccc2)sc(Br)c1Br` [I.011], the figure is 4.10^[a].
In the case of `COC(=O)C(NC(=O)c1sc(Br)c(Br)c1C)(C1CC1)C1CC1` [I.093], under “method [a]”, the LogP is 4.01^[a].
Regarding `Cc1c(C(=O)NC2CNC(=O)C2)sc(Br)c1Br` (stereo not drawn) [I.065], the LogP under setting [1] was 1.89^[a].
Consider `Cc1c(C(=O)NC(CO)C(=O)O)sc(Br)c1Br` (stereo not drawn) [I.071], for which the LogP (method [a]) was 1.92^[a].
As to `Cc1c(C(=O)N[C@H]2CCOC2=O)sc(Cl)c1Cl` [I.167], the LogP under setting [1] was 2.34^[a].
Regarding `CCOC(=O)C1(NC(=S)c2sc(Br)c(Br)c2C)CC1` [I.100], the LogP (method [a]) is 4.15^[a].
On the same count and under the same terms, the same measure for `COC(=O)C(C)(Cc1ccccc1)NC(=O)c1sc(Cl)c(Cl)c1C` (stereo not drawn) [I.166]: 4.60^[a].
As for `CCOC(=O)CN(OC)C(=O)c1sc(Br)c(Br)c1C` [I.097], the LogP (method [a]) was 3.93^[a].
On the same count and under the same terms, as for `Cc1c(C(=O)NC(CCC(N)=O)C(=O)O)sc(Br)c1Br` (stereo not drawn) [I.072], the figure is 1.77^[a].
For the compound `Cc1c(C(=O)NC2CCSC2=O)sc(Cl)c1Cl` (stereo not drawn) [I.037], the LogP under setting [1] is 2.86^[a].
On to `CCOC(=O)CN(C(=O)c1sc(Cl)c(Cl)c1C)C1CC1` [I.168], for which the LogP (method [a]) is 3.75^[a].
Same read-out and setting: as for `CCOC(=O)C(NC(=O)c1sc(Cl)c(Cl)c1C)C(=O)OCC` [I.087], the figure is 3.81^[a]; as for `Cc1c(C(=O)NC(C(=O)NC(C(=O)O)C2CC2)C2CC2)sc(Cl)c1Cl` (stereo not drawn) [I.096], 2.67^[a].
For `Cc1c(C(=O)NC2CCCNC2=O)sc(Br)c1Br` (stereo not drawn) [I.022], the LogP under setting [1] is 2.10^[a].
As for `Cc1c(C(=O)NC(C(=O)OCc2ccccc2)C2CC2)sc(Cl)c1Cl` (stereo not drawn) [I.140], the LogP (method [a]) was 4.53^[a].
`COC(=O)[C@H](Cc1ccccc1)NC(=O)[C@H](CC(=O)O)NC(=O)c1sc(Cl)c(Cl)c1C` [I.048]: the LogP under setting [1] is 3.09^[a].
For `Cc1c(C(=O)NC(C#N)Cc2ccccc2)sc(Br)c1Br` (stereo not drawn) [I.030], the LogP (method [a]) is 4.01^[a].
Consider `Cc1c(C(=O)NC2CCNC2=O)sc(Br)c1Br` (stereo not drawn) [I.064], for which the LogP under setting [1] was 1.93^[a].
For the compound `COC(=O)[C@H](CCC(N)=O)NC(=O)c1sc(Cl)c(Cl)c1C` [I.046], under “method [a]”, the LogP was 2.06^[a].
Still for that read-out and setting: the same measure for `Cc1c(C(=O)NC(C(=O)NCC#N)C(C)C)sc(Br)c1Br` (stereo not drawn) [I.075]: 2.92^[a].
Same read-out and setting: as for `CCSC(=O)C(CC(C)C)NC(=O)c1sc(Br)c(Br)c1C` (stereo not drawn) [I.007], the figure is 5.03^[a]; as for `CCOC(=O)C(NC(=O)c1sc(Br)c(Br)c1C)(OCC)C(C)C` (stereo not drawn) [I.112], 4.80^[a].
The same measure, in the same setting: the same measure for `CCOC(=O)C1(NC(=O)c2sc(Br)c(Br)c2C)CCOCC1` [I.139]: 3.17^[a]; for `COC(=O)[C@H](CC(N)=O)NC(=O)c1sc(Br)c(Br)c1C` [I.053]: 2.12^[a]; for `Cc1c(C(=O)NCC2(C(=O)O)CC2)sc(Br)c1Br` [I.019]: 2.50^[a].
`Cc1c(C(=O)NC2(C(N)=O)CC2)sc(Cl)c1Cl` [I.063]: under “method [a]”, the LogP is 1.96^[a].
Same read-out and setting: the same measure for `Cc1c(C(=S)NC2(C(=O)O)CC2)sc(Br)c1Br` [I.102]: 2.91^[a]; for `Cc1c(C(=S)NC2(C(=O)OC3CCC3)CC2)sc(Br)c1Br` [I.127]: 4.66^[a]; for `Cc1c(C(=O)NC2(C(=O)OC3CCCCC3)CCC2)sc(Cl)c1Cl` [I.158]: 5.08^[a].
On the same count and under the same terms, the same measure for `CCOC(=O)CNC(=S)c1sc(Cl)c(Cl)c1C` [I.099]: 3.92^[a]; for `Cc1c(C(=O)NCC#N)sc(Br)c1Br` [I.026]: 2.59^[a].
